Assay results taken from patent US20040220081A1, “Nanoparticulate bioactive agents” (Spherics, Inc., priority 2002, published 2004).

Legend:
[1] = Electron microscopy of precipitated particles of other drugs; type: physicochemical; settings: 3% drug in dichloromethane precipitated in 100 vol. pentane, needles
Excerpt: In other experiments, 3% of the drug carbamazepine in dichloromethane was precipitated in 100 vol. of pentane. By electron microscopy, the particles were predominantly needles, about 1 micron in diameter by 50 microns in length. A few 1 micron spherical particles were also observed. A similar experiment using the drug itraconazole produced generally spherical particles in the range of about 0.1 to 0.5 microns diameter, by electron microscopy.

in vivo = settings: rat

Compound | particle diameter [1] | particle length [1] [microns] | bioavailability (in vivo) [%]
NC(=O)N1c2ccccc2C=Cc2ccccc21 [carbamazepine] | about 1 micron | ~50 | 
CC(=O)O[C@H]1C(=O)[C@@]2(C)[C@H]([C@H](OC(=O)c3ccccc3)[C@]3(O)C[C@H](OC(=O)[C@H](O)[C@@H](NC(=O)c4ccccc4)c4ccccc4)C(C)=C1C3(C)C)[C@]1(OC(C)=O)CO[C@@H]1C[C@@H]2O [(e), paclitaxel] |  |  | 0.7
